What was measured:
Dipeptidyl peptidase 2 = Dipeptidyl peptidase 2 (Homo sapiens, UniProt Q9UHL4); experiment: hDPP7 Inhibition Assay
Experimental: Table 4: Compounds were tested in a biochemical inhibition assay using human dipeptidylpeptidase 7 (hDPP7) enzyme at 15 nM FAC (BPS Bioscience, #80070) and the substrate Ala-Pro-amino-methylcoumarin (BPS Bioscience, #80305) at 5 μM FAC. The enzymatic reactions were conducted in duplicate at rt for 30 min in 50 μL DPP assay buffer (BPS Bioscience, #80300). Compound solutions (in DMSO) at 10 CR, 3 fold dilution series were prepared in assay buffer ten-fold higher than the final concentration, and 5 μL of the dilution was added to a 50 μL reaction so that the highest compound concentration was 100 μM FAC and the concentration of DMSO was 1% in all wells. The plates were read on a Tecan Infinite M1000 microplate reader with excitation 340 nm and emission 460 nm. Data were analyzed in Graph Pad Prism. IC50 values were determined by plotting % inhibition versus log compound concentration and using a one site dose response model. Raw data signals were normalized using 1% DMSO as 0% control and no enzyme as 100% inhibitor control.

Prolyl endopeptidase FAP = molecular target: T1, Prolyl endopeptidase FAP (Homo sapiens, UniProt Q12884); experiment: hFAP Binding Assay; conditions: for kon: read-out: kon (M-1-s-1)
T1 sequence (Q12884 whole entry): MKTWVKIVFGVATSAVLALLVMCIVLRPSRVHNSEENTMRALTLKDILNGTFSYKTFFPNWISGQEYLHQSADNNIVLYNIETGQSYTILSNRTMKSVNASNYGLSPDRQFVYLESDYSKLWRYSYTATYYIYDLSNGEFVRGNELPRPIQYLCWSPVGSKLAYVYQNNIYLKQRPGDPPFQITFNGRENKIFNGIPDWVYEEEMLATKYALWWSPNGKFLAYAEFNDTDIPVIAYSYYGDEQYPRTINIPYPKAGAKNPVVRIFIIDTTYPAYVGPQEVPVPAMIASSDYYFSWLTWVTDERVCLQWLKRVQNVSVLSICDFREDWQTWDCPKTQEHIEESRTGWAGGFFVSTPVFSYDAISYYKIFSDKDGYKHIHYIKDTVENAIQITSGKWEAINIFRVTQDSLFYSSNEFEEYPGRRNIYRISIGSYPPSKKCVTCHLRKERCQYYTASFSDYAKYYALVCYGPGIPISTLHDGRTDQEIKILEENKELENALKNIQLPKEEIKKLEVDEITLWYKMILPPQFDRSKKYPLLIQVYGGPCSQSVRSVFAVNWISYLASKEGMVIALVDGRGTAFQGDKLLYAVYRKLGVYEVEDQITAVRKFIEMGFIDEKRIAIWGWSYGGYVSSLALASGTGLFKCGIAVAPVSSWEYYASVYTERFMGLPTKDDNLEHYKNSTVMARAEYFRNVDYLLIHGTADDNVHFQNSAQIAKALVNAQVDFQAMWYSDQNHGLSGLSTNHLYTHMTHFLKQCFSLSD
Experimental: Table 1: Compounds were tested in a direct binding assay using 8K surface plasmon resonance biosensor (GE Healthcare) at 20° C. Immobilization of hFAP (M39-A757) on a CMD200M sensor chip (Xantec) was performed using standard amine coupling procedure in immobilization buffer (10 mM HEPES, 150 mM NaCl, 0.05% Tween20, pH 7.4). The surface was washed with 10 mM NaOH, 1M NaCl before being activated with EDC/NHS (GE Healthcare), followed by immobilization of hFAP (in 10 mM Acetate pH 5.0). Finally, the surface was deactivated by ethanolamine. Immobilization levels of hFAP were around 4000-6000 RU. The reference spot was treated as described, omitting the injection of hFAP. Compound concentration series were injected over the immobilized protein in increasing concentrations (2-500 nM) using single cycle kinetics in running buffer (20 mM TRIS, 150 mM NaCl, 0.05% Tween20, 1% DMSO, pH 7.4).

SMILES | IC50 (Dipeptidyl peptidase 2) [µM] | koff (Prolyl endopeptidase FAP) [s⁻¹] | kon (Prolyl endopeptidase FAP) [M⁻¹ s⁻¹]
Cc1cc(N2CCOCC2)cc2c(C(=O)NCC(=O)N3CSC[C@H]3C#N)ccnc12 [US20230312550, Example 9] | > 100 |  | 
COC[C@@H]1CCCN1c1ccc2nccc(C(=O)NCC(=O)N3CSC[C@H]3C#N)c2c1 [US20230312550, Example 212] |  | 0.00034 | 3.3e+06
N#C[C@@H]1CSCN1C(=O)CNC(=O)c1ccnc2ccc(N3C[C@H](F)[C@@H](F)C3)cc12 [US20230312550, Example 213] |  | 0.00017 | 4.4e+06
N#C[C@@H]1CSCN1C(=O)CNC(=O)c1ccnc2ccc(N3C[C@@H](F)[C@H](F)C3)cc12 [US20230312550, Example 214] |  | 9.2e-05 | 2.9e+06
Cc1nc(C)c(-c2ccc3nccc(C(=O)NCC(=O)N4CSC[C@H]4C#N)c3c2)o1 [US20230312550, Example 215] |  | 0.00017 | 1.8e+06
Cc1noc(C)c1-c1ccc2nccc(C(=O)NCC(=O)N3CSC[C@H]3C#N)c2c1 [US20230312550, Example 216] |  | 0.0009 | 5.2e+06
N#C[C@@H]1CSCN1C(=O)CNC(=O)c1ccnc2ccc(N3C[C@H](O)C(F)(F)C3)cc12 [US20230312550, Example 224] |  | 6.8e-05 | 3e+06
N#C[C@@H]1CSCN1C(=O)CNC(=O)c1ccnc2ccc(N3CCC4(CC3)COC4)cc12 [US20230312550, Example 229] |  | 2.6e-05 | 2.4e+06

Other lines, results leading:

IC50 (Dipeptidyl peptidase 2) [µM] | koff (Prolyl endopeptidase FAP) [s⁻¹] | kon (Prolyl endopeptidase FAP) [M⁻¹ s⁻¹] | SMILES
 | 0.0002 | 5.9e+06 | C[C@@H]1CCCN1c1ccc2nccc(C(=O)NCC(=O)N3CSC[C@H]3C#N)c2c1 [US20230312550, Example 211]
 | 0.0013 | 1.8e+06 | N#C[C@@H]1CSCN1C(=O)CNC(=O)c1ccnc2ccc(-n3ccnc3-c3ccccc3)cc12 [US20230312550, Example 217]
 | 0.00032 | 670000 | N#C[C@@H]1CSCN1C(=O)CNC(=O)c1ccnc2ccc(-n3ccc(-c4ccccc4)c3)cc12 [US20230312550, Example 218]
 | 0.0002 | 2.4e+06 | N#C[C@@H]1CSCN1C(=O)CNC(=O)c1ccnc2ccc(-n3ccc4c3CCCC4)cc12 [US20230312550, Example 219]
 | 2.6e-05 | 2.5e+06 | N#C[C@@H]1CSCN1C(=O)CNC(=O)c1ccnc2ccc(N3CCC(F)(c4ccccc4)CC3)cc12 [US20230312550, Example 223]

Reference: BindingDB's records for patent US20230312550 (Astrazeneca, 2023)
